This is an account of results in article PMC8904451, “Novel chalcone-derived pyrazoles as potential therapeutic agents for the treatment of non-small cell lung cancer” (Scientific Reports, 2022).

Assay [1] relates to tubulin. Description: HTS-tubulin polymerization assay. The class given is biochemical. To be noted: 120-min kinetic reaction, absorbance 340 nm, vs vehicle. The method, then:
To further evaluate whether the tubulin–microtubule system was the target site of PCH-1, in vitro microtubule polymerization assays were performed using the microtubule protein with Paclitaxel and Vincristine as a reference. Paclitaxel and Vincristine are antimitotic drugs that have been commonly used in conventional chemotherapy for decades. In 1979, it was shown that Paclitaxel accelerates the initiation of tubulin fiber polymerization and stabilizes the formed tubulin fibers in vitro, even in the absence of GTP or MAP in the solution[30]. Vincristine, on the other hand, binds to tubulin and inhibits its polymerization.
The assay was performed according to the manufacturer’s instructions. Briefly, compounds were diluted in DMSO to a concentration of 2 mM and then in GTB buffer to a concentration of 50 µM. In the wells of a 96-well plate (UV transparent, half surface wells) previously heated to 37 °C, 10 µl of dilutions of the test compounds were placed in duplicate. The plate was incubated for 2 min at 37 °C, and 100 µl of freshly prepared tubulin solution (4 mg/ml) in GTB-GTP buffer was then added. The plate was immediately placed in a Tecan SPARK 10 M plate reader, and the reaction kinetics were measured with the following settings: absorbance reading: 340 nm, 37 °C, interval: 45 s, number of cycles: 160.

For assay [2], the system named is A-549, H226, and H460 cells. Description: Annexin V/PI apoptosis assay by flow cytometry. The class given is cell-based, human. To be noted: 48 h, IC90, depending on the cell line; vehicle approximately 5%. How it is done:
To examine whether the effect of PCH-1 on reducing the viability of lung cancer cells was the result of inducing apoptotic cell death, A-549, H226, and H460 cells were treated with the compound for 6, 24, and 48 h, and analyzed by Annexin V/propidium iodide (PI) double staining using flow cytometry (Fig. S1 in supplementary information). […] At 24 h of treatment with the compound, a slight increase in both early (Annexin V(+)/PI(−)) and late (Annexin V(+)/PI(+)) apoptotic fractions was observed. […] PI can enter only those cells with damaged plasma membrane, which enables to differentiate early apoptotic cells from late apoptotic and necrotic cells. Overall, biochemical changes involved in apoptotic cell death were prevailing, whereas necrotic changes were not observed. Furthermore, typical phenotypic features of cells undergoing apoptosis were visualized by fluorescent microscopy in Supplementary Fig. S2 and described in Supplementary Information.
Cells were seeded onto tissue culture plates and allowed to attach for 24 h. Next, the cells were treated with PCH-1 or Etoposide at IC90 concentration for 6, 24, and 48 h. […]
On the technique in general: In flow cytometry, cells or beads pass a laser one at a time.

The subject of assay [3] is A-549 cells. Description: Intracellular ROS measurement (H2DCFDA, flow cytometry). The class given is cell-based, human. From the text:
The generation of intracellular reactive oxygen species (ROS) causes an imbalance of cellular redox homeostasis, followed by damage of cellular components and cell death. Therefore, compounds with the ability to produce high levels of ROS and/or inhibit antioxidant processes are often used in anticancer therapies. In the present study, the effect of PCH-1 on ROS generation in A-549 cells was investigated by flow cytometry. As an indicator of ROS generation, the fluorescent probe 2ʹ,7ʹ-dichlorodihydrofluorescein diacetate (H2DCFDA) was used, which undergoes oxidation by ROS to form a highly fluorescent compound 2ʹ,7ʹ-dichlorofluorescein (DCF). As shown in Supplementary Fig. S6 in Supplementary Information, compound PCH-1 induced a massive amount of ROS in A-549 cells in a time-dependent manner. […] Moreover, the induction of ROS was equally high for PCH-1 and the reference compound H2O2 in all the tested time points.
For determination the ROS generation, cells were treated with IC90 of PCH-1, H2O2, or 1% DMSO for 3, 6, and 24 h. Next, a 1 µM CM-H2DCFDA (#C6827; Thermo-Fisher) probe was added to the cells in each plate 30 min before the end of the drug treatment. After incubation cells were collected by trypsinization, stained with 7-Aminoactinomycin D (7-AAD, Sigma-Aldrich), and measured. The analysis was performed with Guava EasyCyte 8 cell sorter (Merck Millipore) and FlowJo software v10. Each experiment was repeated independently three times.

The test system of assay [4] is A-549 cells. Description: MTT cell viability assay, A-549. The class given is cell-based, human. To be noted: for IC50: Homo sapiens, A549. The method, then:
All the synthesized chalcone-derived pyrazoles were evaluated for their antiproliferative activity against three human non-small cell lung cancer cell lines: A-549, H226, and H460, and a nonmalignant human embryonic kidney cell line HEK293. Cisplatin and 5-fluorouracil (5-FU) were used as a reference. […] The results of the studies are expressed as the IC50 concentration that inhibits 50% growth of cells. […] Following treatment with PCH-1, the viability of all the tested cancer cell lines decreased in a concentration-dependent manner.
The cell viability assay was performed for A-549, H226, H460, and HEK293 cells after treatment with the test compounds by using the 3-(4,5-dimethylthiazol-2-yl)-2,5-diphenyltetrazolium bromide (MTT, Sigma-Aldrich) assay. Briefly, cells were seeded onto 96-well culture plates for attachment. After 24 h, triplicate wells were treated with DMSO (1%) and the agents. […] After 2–4 h of incubation, the medium was removed, and the formazan crystals were dissolved in 100 μl of DMSO. The absorption was measured at 450 nm with an ASYS UVM340 microplate reader (Biochrom Ltd.). The 50% inhibitory concentration (IC50) was defined as the concentration that reduced the absorbance of the DMSO-treated wells by 50% of the vehicle. The IC50 values were generated from GraphPad Prism 9 software by plotting the survival curve as a function of dose from 3 independent experiments.
(Formazan colour is commonly taken as a measure of viable cells.)

Where two headings read alike, the source gives them in different places.

As usually defined, the IC50 is the concentration that gives 50% inhibition. For `COc1ccc(C2CC(c3cc4c(cc3OC)OCO4)=NN2C(C)=O)cc1` (stereo not drawn) [PCH-1, 1-[3-(6-methoxy-2H-1,3-benzodioxol-5-yl)-5-(4-methoxyphenyl)-4,5-dihydro-1H-pyrazol-1-yl]ethan-1-one], in assay [1], the “effect on tubulin polymerization kinetics” value is “remarkably reduced the total mass of tubulin polymer”. Moreover, the “late apoptotic phase (Annexin V(+)/PI(+)) cells” value in assay [2] is on record as 30–60%. In addition, the “increase of ROS towards vehicle control” value was found to be 15% in assay [3] (A-549, IC90, 3 h); 56.9% in assay [3] (A-549, IC90, 6 h); 68.1% in assay [3] (A-549, IC90, 24 h). Further, in assay [4] (72 h IC50 ratio), the “superior activity to the reference compound Cisplatin, A-549” value is on record as “approximately 6.7 fold”. For the same compound, the IC50 stood at 4.32 ± 0.28 µM in assay [4] (72 h, MTT, read-out: IC50 ± SD, growth inhibition, A-549); 41.3 ± 0.75 µM in assay [4] (A-549, 24 h, read-out: IC50 after 24 h of treatment); 25.6 ± 0.97 µM in assay [4] (A-549, 48 h, read-out: IC50 after 48 h of treatment).
